Experimental findings from patent US12667563B2, “Prophylactic or therapeutic agent for porphyria” (TANABE PHARMA CORPORATION, priority 2020, dated 2026) are described below.

Common to all, as to assay type: in vivo, human
In assay [1] the test system is patients with erythropoietic protoporphyria or X-linked porphyria. Briefly: Time to occurrence of phototoxicity-related symptom in randomized double-blind clinical trial. The settings on record: for Least squares mean of the length of time (in minutes) before the first occurrence of a symptom in a day: week 16. As to the method: Compound A was administered to adult male and female patients with erythropoietic protoporphyria or X-linked porphyria for 16 weeks in a randomized double-blind clinical trial. As a primary endpoint for the clinical effect, the time to the first symptom due to exposure to light, including indirect sunlight as well as direct sunlight, during the period from 1 hour after sunrise to 1 hour before sunset was evaluated.
The baseline median of the erythrocyte protoporphyrin IX level was determined by measuring the protoporphyrin IX level in the fraction of erythrocytes in blood.
The median of the melanin density was determined h spectrophotometric measurement for the skin at the following six sites: the forehead, the left cheek, the inner side of the right upper arm, the inner side of the left forearm, the right side of the abdomen, and the left side of the hip.
The test in Example 2 was conducted in the Northern Hemisphere.

Assay [2] shares this test system. Nature of the assay: Number of pain events recorded in electronic diary by patients during 16-week evaluation period of clinical trial. The settings on record: for reduction of pain events relative to the placebo administration group: 16 weeks; for Incidence rate of pain: N 24, 16-week evaluation period (placebo 7.5). How it is done: Compound A was administered to adult male and female patients with erythropoietic protoporphyria or X-linked porphyria for 16 weeks in a randomized double-blind clinical trial. As another endpoint for the clinical effect, the number of pain events during the evaluation period of 16 weeks was recorded in an electronic diary by the patients themselves.
The incidence rates of pain during the evaluation period in the placebo administration group, the 100-mg compound A-administration group, and the 300-mg compound A-administration group were 7.5, 3.3, and 3.5, respectively.

The test system is the same in assay [3]. Briefly: Health-related QOL: PGIC (Patient Global Impression of Change) score in clinical trial. As to conditions: 7-point scale, 7 = remarkable improvement (placebo 2.9), P value <0.001. As to the method:
Compound A was administered to adult male and female patients with erythropoietic protoporphyria or X-linked porphyria for 16 weeks in a randomized double-blind clinical trial. As a secondary endpoint for the clinical effect, the PGIC (Patient Global Impression of Change) score, which is a health-related QOL, of each patient at week 16 was recorded by the patients themselves, More specifically, each patient was provided with a questionnaire for scoring the degree of improvement of the overall physical and mental health conditions on a 7-point scale.
The PGIC scores at week 16 in the placebo-administration group, the 100-mg compound A-administration group, and the 300-mg compound A-administration group were 2.9, 6.4, and 6.6, respectively.

As to `COC[C@H]1CN(C(=O)[C@]2(F)CN(C3CCCC3)C[C@H]2c2ccc(OC)cc2)C[C@@H]1c1ccc(C(F)(F)F)cc1N1CCC(C(=O)O)CC1.O=P(O)(O)O` [Compound A, cocrystal containing 1-{2-[(3S,4R)-1-{[(3R,4R)-1-cyclopentyl-3-fluoro-4-(4-methoxyphenyl)pyrrolidin-3-yl]carbonyl}-4-(methoxymethyl)pyrrolidin-3-yl]-5-(trifluoromethyl)phenyl}piperidine-4-carboxylic acid and phosphoric acid], the “Least squares mean of the length of time (in minutes) before the first occurrence of a symptom in a day” value turned out to be 52.8 min in assay [1] (100 mg (N = 15) vs placebo (N = 15), subgroup with initial dosing in fall or winter, P value 0.029); 54.4 min in assay [1] (100 mg (N = 18) vs placebo (N = 20), subgroup with initial dosing in spring or summer, P value 0.073); 53.8 min in assay [1] (100 mg orally once daily (N = 33) vs placebo (N = 35), P value 0.008); 95.8 min in assay [1] (300 mg (N = 16) vs placebo (N = 15), subgroup with initial dosing in fall or winter, P value <0.001); 42.2 min in assay [1] (300 mg (N = 18) vs placebo (N = 20), subgroup with initial dosing in spring or summer, P value 0.168); 62.5 min in assay [1] (300 mg orally once daily (N = 34) vs placebo (N = 35), P value 0.003). For the same molecule, the “least squares mean of the time (in minutes) to the first occurrence of the symptom in a day” value in assay [1] (100 mg, patient group with baseline median erythrocyte protoporphyrin IX level not less than 1980.50 mcg/dL, P value 0.020) came to 69.3 min; in assay [1] (100 mg, patient group with median melanin density less than 3.0915, P value 0.499), 23.2 min; in assay [1] (100 mg, patient group with median melanin density not less than 3.0915, P value <0.001), 85.0 min; in assay [1] (300 mg, patient group with baseline median erythrocyte protoporphyrin IX level not less than 1980.50 mcg/dL, P value 0.003) it was 82.6 min; in assay [1] (300 mg, patient group with median melanin density less than 3.0915, P value 0.051) it was 63.7 min; in assay [1] (300 mg, patient group with median melanin density not less than 3.0915, P value 0.002) it was 80.3 min. Besides, the “time to the first occurrence of the symptom in a day” value in assay [1] (patient group with baseline median erythrocyte protoporphyrin IX level less than 1980.50 mcg/dL) was “tended to be prolonged”. The figures for the “reduction of pain events relative to the placebo administration group” value in assay [2] (100 mg orally once daily) and in assay [2] (300 mg orally once daily) were 60% and 50%, respectively. Moreover, the “Incidence rate of pain” value was 3.3 in assay [2] (100 mg orally once daily) and 3.5 in assay [2] (300 mg orally once daily). In addition, the “Incidence rate of pain, ratio to placebo” value in assay [2] (100 mg orally once daily, P value 0.027) was 0.4; in assay [2] (300 mg orally once daily, P value 0.028), 0.5. In addition, the “Least squares mean of the PGIC scores” value in assay [3] (100 mg orally once daily, N 25, week 16) was found to be 6.4; in assay [3] (300 mg orally once daily, N 24, week 16), 6.6.
